Measurements reported in patent publication US9999622B2, “Pyrazolothiazole compound and medicine comprising same” (NIPPON SHINYAKU CO., LTD., priority 2014, dated 2018).
Where a name gives a salt, the structure may show the parent alone.

Experiments:
Format in all cases: biochemical
[1] = target: T1, JAK3 (Homo sapiens, UniProt P52333); assay: JAK tyrosine kinase inhibitory activity in the presence of 1 mM ATP (ELISA), JAK3
T1 construct: purchased Carna Biosciences, Inc
T1 sequence (P52333 1-1124): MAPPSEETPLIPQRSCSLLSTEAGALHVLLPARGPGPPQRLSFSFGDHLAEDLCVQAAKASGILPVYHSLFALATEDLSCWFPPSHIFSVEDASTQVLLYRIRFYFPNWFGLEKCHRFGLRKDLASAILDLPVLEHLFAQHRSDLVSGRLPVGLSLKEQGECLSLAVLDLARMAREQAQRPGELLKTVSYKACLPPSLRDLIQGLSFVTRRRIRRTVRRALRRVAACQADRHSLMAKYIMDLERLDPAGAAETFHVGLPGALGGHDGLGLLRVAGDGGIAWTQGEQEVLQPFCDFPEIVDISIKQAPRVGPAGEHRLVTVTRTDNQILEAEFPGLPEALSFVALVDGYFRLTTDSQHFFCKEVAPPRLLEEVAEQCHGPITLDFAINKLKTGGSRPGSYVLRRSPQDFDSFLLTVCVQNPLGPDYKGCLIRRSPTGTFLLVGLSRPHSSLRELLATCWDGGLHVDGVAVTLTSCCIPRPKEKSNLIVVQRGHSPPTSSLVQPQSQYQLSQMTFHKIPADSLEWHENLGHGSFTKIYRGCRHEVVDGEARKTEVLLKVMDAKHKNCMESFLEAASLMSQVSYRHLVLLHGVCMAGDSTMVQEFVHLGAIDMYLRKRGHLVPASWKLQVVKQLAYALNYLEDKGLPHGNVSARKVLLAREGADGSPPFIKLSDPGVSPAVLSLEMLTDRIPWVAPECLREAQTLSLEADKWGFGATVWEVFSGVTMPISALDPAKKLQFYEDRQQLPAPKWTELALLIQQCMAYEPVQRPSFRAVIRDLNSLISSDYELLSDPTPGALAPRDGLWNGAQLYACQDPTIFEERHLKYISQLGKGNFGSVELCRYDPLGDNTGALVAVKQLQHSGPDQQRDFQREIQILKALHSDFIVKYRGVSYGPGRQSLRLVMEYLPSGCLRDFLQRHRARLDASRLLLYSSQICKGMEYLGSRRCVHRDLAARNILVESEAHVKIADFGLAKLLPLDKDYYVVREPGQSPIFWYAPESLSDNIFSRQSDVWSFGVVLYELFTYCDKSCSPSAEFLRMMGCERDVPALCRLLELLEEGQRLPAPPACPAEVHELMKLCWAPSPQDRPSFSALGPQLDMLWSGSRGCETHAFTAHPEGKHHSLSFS
Procedure, shortened: (§1)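 Kinase reactions ran on streptavidin-coated plates in 15 mM Tris-HCl pH 7.5, 0.01% Tween-20, 1 mM DTT, 30 °C for 1 h. Enzyme was prediluted to 7.5 nM (JAK1) or 0.75 nM (JAK2, JAK3) before addition. Phosphotyrosine was detected with HRP anti-pTyr antibody and TMB at A450.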

[2] = target: T2, JAK1 (Homo sapiens, UniProt P23458); assay: JAK tyrosine kinase inhibitory activity in the presence of 1 mM ATP (ELISA), JAK1
T2 construct: purchased Carna Biosciences, Inc
T2 sequence (P23458 whole entry): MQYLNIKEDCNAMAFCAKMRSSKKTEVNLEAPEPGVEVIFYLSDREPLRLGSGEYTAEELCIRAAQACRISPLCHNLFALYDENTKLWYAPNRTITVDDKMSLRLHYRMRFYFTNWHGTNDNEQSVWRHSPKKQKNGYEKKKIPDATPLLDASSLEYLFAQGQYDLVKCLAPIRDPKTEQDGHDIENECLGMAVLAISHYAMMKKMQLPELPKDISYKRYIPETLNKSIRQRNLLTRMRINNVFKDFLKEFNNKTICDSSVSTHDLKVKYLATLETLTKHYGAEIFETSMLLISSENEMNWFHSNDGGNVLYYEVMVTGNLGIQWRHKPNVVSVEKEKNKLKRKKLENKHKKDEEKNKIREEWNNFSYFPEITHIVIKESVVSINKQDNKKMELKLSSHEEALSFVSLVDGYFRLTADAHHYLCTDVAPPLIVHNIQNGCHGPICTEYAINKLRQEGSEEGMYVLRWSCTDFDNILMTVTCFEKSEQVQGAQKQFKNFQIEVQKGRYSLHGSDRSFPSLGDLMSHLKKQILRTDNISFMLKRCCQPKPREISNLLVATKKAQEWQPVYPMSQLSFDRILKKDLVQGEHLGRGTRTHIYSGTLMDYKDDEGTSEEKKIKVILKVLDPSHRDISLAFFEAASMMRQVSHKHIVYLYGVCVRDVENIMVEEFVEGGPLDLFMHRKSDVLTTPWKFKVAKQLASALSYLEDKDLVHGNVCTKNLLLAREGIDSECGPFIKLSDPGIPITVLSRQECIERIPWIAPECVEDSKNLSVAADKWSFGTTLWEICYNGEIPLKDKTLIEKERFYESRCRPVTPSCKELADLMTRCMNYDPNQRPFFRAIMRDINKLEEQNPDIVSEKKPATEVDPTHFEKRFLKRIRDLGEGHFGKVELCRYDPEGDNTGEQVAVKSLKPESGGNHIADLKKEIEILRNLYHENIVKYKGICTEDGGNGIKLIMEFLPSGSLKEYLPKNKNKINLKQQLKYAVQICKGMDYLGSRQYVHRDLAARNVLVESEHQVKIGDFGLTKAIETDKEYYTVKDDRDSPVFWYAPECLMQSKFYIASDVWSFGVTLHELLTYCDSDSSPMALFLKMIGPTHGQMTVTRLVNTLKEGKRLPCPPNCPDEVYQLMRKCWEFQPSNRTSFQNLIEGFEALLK
Procedure, shortened: as §1

[3] = target: T3, JAK2 (Homo sapiens, UniProt O60674); assay: JAK tyrosine kinase inhibitory activity in the presence of 1 mM ATP (ELISA), JAK2
T3 construct: purchased Carna Biosciences, Inc
T3 sequence (O60674 whole entry): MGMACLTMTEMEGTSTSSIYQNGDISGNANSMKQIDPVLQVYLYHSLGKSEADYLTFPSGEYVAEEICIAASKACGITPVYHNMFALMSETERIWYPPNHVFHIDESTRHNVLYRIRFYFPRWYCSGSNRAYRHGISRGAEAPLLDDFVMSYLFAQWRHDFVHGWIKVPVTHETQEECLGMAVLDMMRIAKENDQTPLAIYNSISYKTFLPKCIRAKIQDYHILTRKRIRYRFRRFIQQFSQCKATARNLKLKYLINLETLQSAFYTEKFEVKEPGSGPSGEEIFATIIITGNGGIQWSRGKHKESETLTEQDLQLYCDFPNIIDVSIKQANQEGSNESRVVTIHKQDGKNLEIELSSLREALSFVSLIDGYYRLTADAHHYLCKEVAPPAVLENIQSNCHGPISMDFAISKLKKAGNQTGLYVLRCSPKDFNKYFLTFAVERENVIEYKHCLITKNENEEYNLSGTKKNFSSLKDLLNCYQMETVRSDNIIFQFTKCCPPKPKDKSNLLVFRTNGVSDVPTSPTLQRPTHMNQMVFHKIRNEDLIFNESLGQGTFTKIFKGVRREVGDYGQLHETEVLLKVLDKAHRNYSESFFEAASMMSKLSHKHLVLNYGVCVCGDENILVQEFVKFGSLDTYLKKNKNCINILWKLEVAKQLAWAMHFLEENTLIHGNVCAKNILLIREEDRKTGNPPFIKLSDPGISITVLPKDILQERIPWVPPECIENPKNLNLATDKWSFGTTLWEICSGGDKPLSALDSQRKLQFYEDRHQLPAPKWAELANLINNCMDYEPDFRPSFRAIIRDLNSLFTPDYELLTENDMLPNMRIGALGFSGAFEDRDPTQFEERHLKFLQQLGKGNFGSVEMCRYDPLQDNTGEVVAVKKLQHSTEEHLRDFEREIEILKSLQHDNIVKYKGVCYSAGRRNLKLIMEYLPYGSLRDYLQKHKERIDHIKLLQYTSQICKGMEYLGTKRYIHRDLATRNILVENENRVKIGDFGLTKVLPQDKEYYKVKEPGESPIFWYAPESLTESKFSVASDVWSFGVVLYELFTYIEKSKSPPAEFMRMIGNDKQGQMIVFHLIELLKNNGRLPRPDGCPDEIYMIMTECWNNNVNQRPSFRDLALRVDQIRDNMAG
Procedure, shortened: as §1

Structure (SMILES) | IC50 [1] [nM] | IC50 [2] [nM] | IC50 [3] [nM]
C[C@@H](Nc1cc(C(=O)N2CCC(NC(=O)OC(C)(C)C)CC2)nc(-c2cnn3ccsc23)n1)C(C)(C)C [Example 100, tert-Butyl (1-{[6-{[(2R)-3,3-dimethylbutan-2-yl]amino}-2-(pyrazolo[5,1-b][1,3]thiazol-7-yl)pyrimidin-4-yl]carbonyl}piperidin-4-yl)carbamate] | 3400 | 140 | 3000
C[C@@H](Nc1cc(C(=O)N2CCC(NC(=O)c3ccccc3Cl)CC2)nc(-c2cnn3ccsc23)n1)C(C)(C)C [Example 196, 2-Chloro-N-1-[6-[(2R)-3,3-dimethylbutan-2-yl]amino-2-(pyrazolo[5,1-b][1,3]thiazol-7-yl)pyrimidine-4-carbonyl]piperidin-4-ylbenzamide] | 7300 | 110 | 9100
C[C@H](Nc1cc(C(=O)N2CCC(NC(=O)c3cccs3)CC2)nc(-c2cnn3ccsc23)n1)C1CC1 [Example 32, N-(1-{[6-{[(1S)-1-Cyclopropylethyl]amino}-2-(pyrazolo[5,1-b][1,3]thiazol-7-yl)pyrimidin-4-yl]carbonyl}piperidin-4-yl)thiophene-2-carboxamide] | > 10000 | 380 | 1800
C[C@@H](Nc1cc(C(=O)N2CCC(NC(=O)OCCN(C)C)CC2)nc(-c2cnn3ccsc23)n1)C(C)(C)C [Example 102, 2-(Dimethylamino)ethyl (1-{[6-{[(2R)-3,3-dimethylbutan-2-yl]amino}-2-(pyrazolo[5,1-b][1,3]thiazol-7-yl)pyrimidin-4-yl]carbonyl}piperidin-4-yl)carbamate] | 1700 | 24 | 1300
C[C@H](Nc1cc(C(=O)N2CCC(NC(=O)C3CCC3)CC2)nc(-c2cnn3ccsc23)n1)C1CC1 [Example 165, N-1-[6-[(1S)-1-cyclopropylethyl]amino-2-(pyrazolo[5,1-b][1,3]thiazol-7-yl)pyrimidine-4-carbonyl]piperidin-4-yl cyclobutanecarboxamide] | 1200 | 40 | > 10000
C[C@@H](Nc1cc(C(=O)N2CCC(NC(=O)c3ccc(F)cc3)CC2)nc(-c2cnn3ccsc23)n1)C(C)(C)C [Example 197, N-1-[6-[(2R)-3,3-dimethylbutan-2-yl]amino-2-(pyrazolo[5,1-b][1,3]thiazol-7-yl)pyrimidine-4-carbonyl]piperidin-4-yl-4-fluorobenzamide] | 3800 | 120 | 8200
O=C(NC1CCN(C(=O)c2cc(OC3CCC3)nc(-c3cnn4ccsc34)n2)CC1)C1CC1 [Example 45, N-(1-{[6-(Cyclobutyloxy)-2-(pyrazolo[5,1-b][1,3]thiazol-7-yl)pyrimidin-4-yl]carbonyl}piperidin-4-yl)cyclopropanecarboxamide] | > 10000 | 310 | 5700
CCC(CC)N(C)c1cc(C(=O)N2CCC(O)CC2)nc(-c2cnn3ccsc23)n1 [Example 120, (4-Hydroxypiperidin-1-yl){6-[methyl(pentan-3-yl)amino]-2-(pyrazolo[5,1-b][1,3]thiazol-7-yl)pyrimidin-4-yl}methanone hydrochloride] | 3400 | 870 | 3000
C[C@@H](Nc1cc(C(=O)N2CCC(NC(=O)C3CCCCC3)CC2)nc(-c2cnn3ccsc23)n1)C(C)(C)C [Example 182, N-1-[6-[(2R)-3,3-dimethylbutan-2-yl]amino-2-(pyrazolo[5,1-b][1,3]thiazol-7-yl)pyrimidine-4-carbonyl]piperidin-4-ylcyclohexanecarboxamide] | 1700 | 88 | 5400

The next lines start with the values.

IC50 [1] [nM] | IC50 [2] [nM] | IC50 [3] [nM] | Structure (SMILES)
6100 | 72 | 5400 | CC(C)OC(=O)NC1CCN(C(=O)c2cc(NC(C)(C)C)nc(-c3cnn4ccsc34)n2)CC1 [Example 60, Propan-2-yl (1-{[6-(tert-butylamino)-2-(pyrazolo[5,1-b][1,3]thiazol-7-yl)pyrimidin-4-yl]carbonyl}piperidin-4-yl)carbamate]
> 10000 | 1000 | > 10000 | COC(=O)NC1CCN(C(=O)c2cc(N[C@H]3CCNC3)nc(-c3cnn4ccsc34)n2)CC1 [Example 149, Methyl [1-({2-(pyrazolo[5,1-b][1,3]thiazol-7-yl)-6-[(3S)-pyrrolidin-3-ylamino]pyrimidin-4-yl}carbonyl)piperidin-4-yl]carbamate dihydrochloride]
> 10000 | 2300 | > 10000 | COC(=O)NC1CCN(C(=O)c2cc(N[C@@H]3CCN(C(C)=O)C3)nc(-c3cnn4ccsc34)n2)CC1 [Example 152, Methyl (1-{[6-{[(3R)-1-acetylpyrrolidin-3-yl]amino}-2-(pyrazolo[5,1-b][1,3]thiazol-7-yl)pyrimidin-4-yl]carbonyl}piperidin-4-yl)carbamate]
> 10000 | 260 | > 10000 | COC(=O)N1CCC(Nc2cc(C(=O)N3CCC(NC(=O)C4CC4)CC3)nc(-c3cnn4ccsc34)n2)CC1 [Example 194, Methyl 4-[6-4-[(cyclopropanecarbonyl)amino]piperidine-1-carbonyl-2-(pyrazolo[5,1-b][1,3]thiazol-7-yl)pyrimidin-4-yl]aminopiperidine-1-carboxylate]
2700 | 570 | 2100 | CC(=O)NC1CCN(C(=O)c2cc(N[C@@H](C)C3CC3)nc(-c3cnn4ccsc34)n2)CC1 [Example 2, N-(1-{[6-{[(1S)-1-Cyclopropylethyl]amino}-2-(pyrazolo[5,1-b][1,3]thiazol-7-yl)pyrimidin-4-yl]carbonyl}piperidin-4-yl)acetamide]
> 10000 | 980 | 3200 | COC(=O)NC1CCN(C(=O)c2cc(N[C@H](C)c3ccc(F)cc3)nc(-c3cnn4ccsc34)n2)CC1 [Example 77, Methyl (1-{[6-{[(1R)-1-(4-fluorophenyl)ethyl]amino}-2-(pyrazolo[5,1-b][1,3]thiazol-7-yl)pyrimidin-4-yl]carbonyl}piperidin-4-yl)carbamate]
> 10000 | 52 | > 10000 | N#CCC(=O)N1CC[C@@H](Nc2cc(C(=O)N3CCC(NC(=O)C4CC4)CC3)nc(-c3cnn4ccsc34)n2)C1 [Example 191, N-1-[6-[(3R)-1-(cyanoacetyl)pyrrolidin-3-yl]amino-2-(pyrazolo[5,1-b][1,3]thiazol-7-yl)pyrimidine-4-carbonyl]piperidin-4-ylcyclopropanecarboxamide]
2900 | 350 | 3500 | CCC(CC)N(C)c1cc(C(=O)N2CCC(NC(=O)OC)CC2)nc(-c2cnn3ccsc23)n1 [Example 112, Methyl [1-({6-[methyl(pentan-3-yl)amino]-2-(pyrazolo[5,1-b][1,3]thiazol-7-yl)pyrimidin-4-yl}carbonyl)piperidin-4-yl]carbamate]
> 10000 | 690 | > 10000 | COC(=O)NC1CCN(C(=O)c2cc(NCC3CCN(C(=O)OC)CC3)nc(-c3cnn4ccsc34)n2)CC1 [Example 192, Methyl 4-([6-4-[(methoxycarbonyl)amino]piperidine-1-carbonyl-2-(pyrazolo[5,1-b][1,3]thiazol-7-yl)pyrimidin-4-yl]aminomethyl)piperidine-1-carboxylate]
1400 | 37 | 1400 | C[C@H](Nc1cc(C(=O)N2CCC(NC(=O)OCC(F)F)CC2)nc(-c2cnn3ccsc23)n1)C1CC1 [Example 98, 2,2-Difluoroethyl (l-{[6-{[(1S)-1-cyclopropylethyl]amino}-2-(pyrazolo[5,1-b][1,3]thiazol-7-yl)pyrimidin-4-yl]carbonyl}piperidin-4-yl)carbamate]
9400 | 540 | > 10000 | COC(=O)NC1CCN(C(=O)c2cc(NC(C)(C)CO)nc(-c3cnn4ccsc34)n2)CC1 [Example 61, Methyl [1-({6-[(l-hydroxy-2-methylpropan-2-yl)amino]-2-(pyrazolo[5,1-b][1, 3]thiazol-7-yl)pyrimidin-4-yl}carbonyl)piperidin-4-yl]carbamate]
